From article PMC7531004, “Discovery of gramicidin A analogues with altered activities by multidimensional screening of a one-bead-one-compound library” (Nature Communications, 2020)
“And” between values parts separate entries of the source, which are not always exact repeats. Equal entries are not always repeated. Where a SMILES comes first, the peptide text is derived from it. [ ]: non-standard residue; d: D form. The star is where a group is joined. NHCH2CH2OH = OCCN*; For = O=C*

How the values were obtained:
rabbit red blood cells = details: red cells of rabbit, 2 h
Method: Second, we examined the cytotoxicity toward mammalian cancer cells and hemolytic activity of 1. […] Hemolytic activity was evaluated by monitoring hemoglobin leakage from rabbit red blood cells as a consequence of membrane damage. The concentration of 1 required to cause 10% hemoglobin leakage (HC10) was 160 nM. Thus, the P388 cytotoxicity of 1 was 28-fold more sensitive than its hemolytic activity.
Hemolysis assay of purified peptides. […]
with DMSO to various concentrations as 3-fold serial dilution. A 50% suspension of rabbit blood in Alsever's solution was obtained from Nippon Bio -Supp. Center . The blood suspension (250 µL) w as diluted with phosphate buffered saline (no calcium, no magnesium, 1.00 mL). The resultant suspension was centrifuged at 1000 × g for 3 min at 8 °C. The supernatant was discarded, and the collected cells were resuspended in phosphate buffered saline (no calcium, no magnesium, 1.00 mL). The same procedure was repeated (× 3). The resultant suspension (100 µL) was diluted with phosphate buffered saline (no calcium, no magnesium, 4.90 mL) to give 0.2% red blood cells suspension. The 0.2% red blood cells suspension (95.0 µL) and each dilution series of the purified peptide in DMSO (5 .0 µL) were mixed in 2 mL microtube.
supernatant was transferred to a 96-well plate (TR5003, TrueLine). The absorbance of each well at 415 nm was measured using a Thermo Scientific Multiskan GO (Thermo Fisher Scientific). The mixture of Triton X-100/H2O (5/95, 2.0 µL), DMSO (5.0 µL), and the 0.2% red blood cells suspension (95.0 µL) was used to determine 100% hemolysis. The mixture of DMSO (5.0 µL) and the 0.2% red blood cells suspension (95.0 µL) was used to determine 0% hemolysis. The hemolytic activities of tested peptides ( I) were normalized against 100% hemolysis by Triton X -100 (Imax) and 0% hemolysis by DMSO (I0) according to Supplementary Equation 3, where Ix is the UV absorbance.
I = 100 × (Ix – I0) / (Imax – I0) (3)
The hemolytic activities of the purified peptides were evaluated as the concentrations causing 10% hemolysis (HC10, nM) by means of three replicates. Sigmoidal curve fittings were performed on GraphPad Prism (GraphPad software, Supplementary Figure 7).

[1] = test system: Enterococcus faecalis JCM5803; details: for antibacterial activity/MIC: E. faecalis; for Antibacterial activity MIC: JCM5803
Method: (§1) Third, 1 was subjected to five pathogenic Gram-positive bacteria.
(§2) Evaluation of antibacterial spectra of purified peptides. The MIC assay was performed according to the Clinical and Laboratory Standards Institute protocols. The antibacterial activities of the purified peptides A1, B01–B04, B11–B13, B21, and B22 were measured using the broth microdilution method. 6 Serial dilutions of the peptides were prepared in cation adjusted Mueller Hinton Broth. Each dilution (100 µL) was dispensed to each well of the round-bottom plate to obtain final concentrations ranging from 64 µg/mL to 0.00024 µg/mL. Bacteria were grown at 37 °C overnight on Tryptic Soy Broth or Mueller Hinton Broth agar plates.
(§3) The bacterial colonies were suspended in 0.9% saline to obtain OD 625 of 0.08–0.13 using a spectrophotometer UV-1280 (Shimadzu). The resultant suspension was diluted with cation adjusted Mueller Hinton Broth (1/20). The resultant mixture (10 .0 µL) was inoculated to each well of the plates (approximately 5 × 10^4 CFU/well), mixed, and incubated at 37 °C for 18–24 h. The MIC value was determined as the minimum concentration that inhibited growth of bacteria. For Streptococcus species, cation adjusted Mueller Hinton Broth supplemented with 5% laked horse blood was used. […]

[2] = test system: Listeria monocytogenes 10403S; details: for Antibacterial activity MIC: 10403S; for antibacterial activity/MIC: L. monocytogenes
Method: as §1, §2, §3

[3] = test system: Streptococcus agalactiae JCM5671; details: for Antibacterial activity MIC: JCM5671; for antibacterial activity/MIC: S. agalactiae
Method: as §1, §2, §3

[4] = test system: Streptococcus pneumoniae NBRC 102642; details: for Antibacterial activity MIC: NBRC 102642; for antibacterial activity/MIC: S. pneumoniae
Method: as §1, §2, §3

[5] = test system: Streptococcus pyogenes SSI-9; details: for antibacterial activity/MIC: S. pyogenes; for Antibacterial activity MIC: SSI-9
Method: as §1, §2, §3

[6] = test system: MSSA1 (methicillin-susceptible Staphylococcus aureus); type: cell-based
Method: as §2, §3

[7] = Membrane disruption assay of purified peptides (carboxyfluorescein leakage); type: biochemical; parameters: key: % lysis; Triton X-100 = 100%, DMSO = 0%; details: three replicate lines
Method: Membrane disruption assay of purified peptides. 5(6)-Carboxyfluorescein (CF)-encapsulated large […]
through Nuclepore polycarbonate filters mounted in the mini-extruder apparatus. A solution of egg yolk phosphatidylcholine (EYPC, 22.0 mg, 28.9 µmol) in CHCl3 (225 µL) and egg yolk phosphatidylglycerol (1.2 0 […]
mM HEPES, 100 mM NaCl, 20 mM CF) by sonication. After five -times freeze-thaw cycles, the lipid […]
concentration of the resultant CF -encapsulated LUV suspension was deduced from the phosphatidylcholine concentration determined by using Phospholipid C -Test Wako. The lipid concentration of the LUV […]
as 5-fold serial dilution. The solution of peptide (2.0 µL) and the CF-encapsulated LUV suspension (200 […]
The resultant suspension was incubated at room temperature for 30 min. The fluorescence (Ex. 490 nm/Em. 517 nm) of each well was measured on Gemini EM microplate reader. Triton X-100/H2O (5/95, 3.0 µL), DMSO (2.0 µL), and the LUV suspension were mixed in each plate to determine 100% lysis. […]
was used to determine 0% lysis. The membrane disruption activities of tested peptides ( I) were normalized against 100% lysis by Triton X-100 (Imax) and 0% lysis by DMSO ( I0) according to Supplementary Equation 2 , where Ix is the fluorescence intensity.
The membrane disruption activities of the purified peptides were plotted as means of three replicates (Supplementary Figure 1).

SMILES	Hemolytic activity HC10 (concentration causing 10% hemolysis) (rabbit red blood cells)	antibacterial activity/MIC [1]	Antibacterial activity MIC [1]	Antibacterial activity MIC [2]	antibacterial activity/MIC [2]	Antibacterial activity MIC [3]	antibacterial activity/MIC [3]	Antibacterial activity MIC [4]	antibacterial activity/MIC [4]	antibacterial activity/MIC [5]	Antibacterial activity MIC [5]	antibacterial activity/MIC [6]	Supplementary Figure 1 dose-response value ([7]; concentration 0.000512 nM)	Supplementary Figure 1 dose-response value ([7]; concentration 0.00256 nM)	Supplementary Figure 1 dose-response value ([7]; concentration 0.0128 nM)	Supplementary Figure 1 dose-response value ([7]; concentration 0.064 nM)	Supplementary Figure 1 dose-response value ([7]; concentration 0.32 nM)	Supplementary Figure 1 dose-response value ([7]; concentration 1.6 nM)	Supplementary Figure 1 dose-response value ([7]; concentration 8 nM)	Supplementary Figure 1 dose-response value ([7]; concentration 40 nM)	further results
CC(C)C[C@@H](NC(=O)[C@H](C)NC(=O)[C@H](NC(=O)[C@H](C)NC(=O)CNC(=O)[C@@H](NC=O)C(C)C)[C@H](C)O)C(=O)N[C@H](C(=O)N[C@H](CC(C)C)C(=O)N[C@@H](Cc1c[nH]c2ccccc12)C(=O)N[C@@H](C(=O)N[C@@H](Cc1c[nH]c2ccccc12)C(=O)N[C@H](CC(C)C)C(=O)N[C@@H](Cc1c[nH]c2ccccc12)C(=O)N[C@@H](C(=O)N[C@@H](Cc1c[nH]c2ccccc12)C(=O)NCCO)C(C)C)[C@H](C)O)C(C)C [B21] (For-VGA[dT]A[dL]V[dL]W[dT]W[dL]W[dV]W-NHCH2CH2OH)	> 3000 nM	8 µg/mL	4.3 µM	> 34 µM	> 64 µg/mL	34 µM	64 µg/mL	0.53 µM	1 µg/mL	32 µg/mL	17 µM	16 µg/mL	14.8974 and 5.3396 and 11.8083	18.072 and -2.382 and 0.726	-1.184 and 8.357 and 7.1241	-0.803 and 4.138 and 1.858	1.612 and 3.04 and 7.439	5.221 and -3.492 and 12.0075	15.0705 and 19.6578 and 20.2333	21.4059 and 19.6002 and 32.4332	Supplementary Figure 1 dose-response value ([7]; concentration 200 nM): 39.5964 and 37.7798 and 25.5852; Supplementary Figure 1 dose-response value ([7]; concentration 1000 nM): 40.751 and 51.3594 and 47.003; Supplementary Figure 1 dose-response value ([7]; concentration 5000 nM): 73.5609 and 68.2985 and 59.7258
CC(C)C[C@@H](NC(=O)[C@H](C)NC(=O)CNC(=O)[C@@H](NC=O)C(C)C)C(=O)N[C@@H](C)C(=O)N[C@@H](C(=O)N[C@H](C(=O)N[C@@H](C(=O)N[C@@H](Cc1c[nH]c2ccccc12)C(=O)N[C@@H](C(=O)N[C@@H](Cc1c[nH]c2ccccc12)C(=O)N[C@@H](C(=O)N[C@@H](Cc1c[nH]c2ccccc12)C(=O)N[C@@H](C(=O)N[C@@H](Cc1c[nH]c2ccccc12)C(=O)NCCO)C(C)C)C(C)C)C(C)C)C(C)C)C(C)C)C(C)C [B03] (For-VGA[dL]A[dV]V[dV]W[dV]W[dV]W[dV]W-NHCH2CH2OH)	2000 nM	1 µg/mL	0.54 µM	4.3 µM	8 µg/mL	17 µM	32 µg/mL	0.0042 µM	0.0078 µg/mL	0.13 µg/mL	0.068 µM	32 µg/mL	5.505 and 15.3461 and 13.2964	8.036 and 15.949 and 9.456	13.2228 and 16.5208 and 14.0976	9.063 and 6.7749 and 3.531	12.8598 and 15.0844 and 11.8922	5.299 and 14.829 and 8.996	22.9494 and 19.7369 and 18.966	32.4215 and 16.7903 and 25.2195	Supplementary Figure 1 dose-response value ([7]; concentration 200 nM): 37.1629 and 34.3426 and 29.4644; Supplementary Figure 1 dose-response value ([7]; concentration 1000 nM): 37.6674 and 31.8257 and 42.0921; Supplementary Figure 1 dose-response value ([7]; concentration 5000 nM): 72.3831 and 71.3728 and 73.9246
CC(C)C[C@@H](NC(=O)[C@H](C)NC(=O)[C@H](NC(=O)[C@H](C)NC(=O)CNC(=O)[C@@H](NC=O)C(C)C)C(C)C)C(=O)N[C@H](C(=O)N[C@@H](C(=O)N[C@@H](Cc1c[nH]c2ccccc12)C(=O)N[C@@H](C(=O)N[C@@H](Cc1c[nH]c2ccccc12)C(=O)N[C@H](CC(C)C)C(=O)N[C@@H](Cc1c[nH]c2ccccc12)C(=O)N[C@H](CC(C)C)C(=O)N[C@@H](Cc1c[nH]c2ccccc12)C(=O)NCCO)C(C)C)C(C)C)C(C)C [B02] (For-VGA[dV]A[dL]V[dV]W[dV]W[dL]W[dL]W-NHCH2CH2OH)	1400 nM	0.25 µg/mL	0.13 µM	2.1 µM	4 µg/mL	8.6 µM	16 µg/mL	0.0083 µM	0.016 µg/mL	0.13 µg/mL	0.067 µM	32 µg/mL	9.02 and 15.736 and 15.2512	10.3575 and 0.7916 and 7.576	7.7612 and 17.627 and 12.0633	6.7018 and 5.872 and 12.3383	3.446 and 4.916 and 7.303	10.6531 and 8.102 and 5.996	14.5931 and 12.2206 and 13.5025	11.4708 and 19.6235 and 9.068	Supplementary Figure 1 dose-response value ([7]; concentration 200 nM): 17.1246 and 21.9524 and 27.5088; Supplementary Figure 1 dose-response value ([7]; concentration 1000 nM): 23.4943 and 22.4951 and 16.9683; Supplementary Figure 1 dose-response value ([7]; concentration 5000 nM): 38.5863 and 36.6933 and 43.5874
